Results from patent US20080200441A1, “ESTROGEN RECEPTOR MODULATORS ASSOCIATED PHARMACEUTICAL COMPOSITIONS AND METHODS OF USE” (University of Southern California, priority 2007, published 2008).
pIC50: −log10 of the molar value.

Assays:
ERK2 = test: ERK phosphorylation, Western immunoblotting; settings: 10 nM, 30 min
full-length human ERα = biological target: T1, full-length human ERα (Homo sapiens, UniProt P03372); test: Fluorescence polarization-based competitive binding assay, ERα
T1 sequence (P03372 1-595): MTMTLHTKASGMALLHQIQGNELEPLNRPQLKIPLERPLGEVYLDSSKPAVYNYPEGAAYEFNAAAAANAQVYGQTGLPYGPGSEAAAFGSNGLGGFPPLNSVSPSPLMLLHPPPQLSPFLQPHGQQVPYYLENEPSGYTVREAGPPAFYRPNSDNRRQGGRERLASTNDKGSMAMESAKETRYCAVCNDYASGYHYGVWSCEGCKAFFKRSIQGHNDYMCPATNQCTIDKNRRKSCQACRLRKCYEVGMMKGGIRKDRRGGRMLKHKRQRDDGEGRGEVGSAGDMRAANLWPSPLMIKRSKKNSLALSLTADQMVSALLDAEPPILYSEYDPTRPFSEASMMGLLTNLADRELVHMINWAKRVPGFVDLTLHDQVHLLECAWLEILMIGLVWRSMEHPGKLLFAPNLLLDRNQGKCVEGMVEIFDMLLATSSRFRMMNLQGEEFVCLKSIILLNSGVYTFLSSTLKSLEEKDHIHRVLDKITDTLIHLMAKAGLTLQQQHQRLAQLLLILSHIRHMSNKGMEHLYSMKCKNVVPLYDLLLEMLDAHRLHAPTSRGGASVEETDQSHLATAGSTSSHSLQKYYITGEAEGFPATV

full-length human ERβ = full-length human ERβ (Homo sapiens, UniProt Q92731); test: Fluorescence polarization-based competitive binding assay, ERβ
[1] = tested on: rat primary hippocampal neurons; test: Neuroprotection against glutamate-induced neurotoxicity, LDH release; type: cell-based
[2] = tested on: rat primary hippocampal neurons; test: Neuroprotection against glutamate-induced neurotoxicity, calcein AM staining; type: cell-based
Source text: The combined use of Calcein AM and Ethidium Homodimer-1 (Molecular Probes, Inc., Eugene, Oreg.) provides a two-color fluorescence analysis that allows simultaneous determination of live and dead cells with two probes that measure two recognized parameters of cell viability respectively, intracellular esterase activity and plasma membrane integrity. Calcein AM is a fluorogenic esterase substrate that enters the live cells through permeability and is enzymatically hydrolyzed to form the polyanionic dye calcein, which is well retained within live cells due to the intact plasma membranes and produces an intense uniform green fluorescence at 530 nm. Ethidium homodimer is excluded from live cells and only able to enter cells through compromised plasma membranes and binds to nucleic acid by intercalating between the base pairs, producing a bright red fluorescence at 645 nm. Therefore, Calcein AM and ethidium homodimer serve as two indicators for the identification of live and dead cells respectively.
Cultures were rinsed with phosphate-buffered saline (PBS) and incubated with the combined 1 μM calcein AM and 2 μM ethidium homodimer PBS solution at room temperature for 30 min. The fluorescence intensities were measured on a SpectraMax GEMINI EM dual-wavelength-scanning microplate spectrofluometer (Molecular Devices Corp., Sunnyvale, Calif.) using appropriate excitation and emission filter combinations (485/530 nm for calcein AM and 530/645 nm for ethidium homodimer).

MCF-7 cells = test: MCF-7 cell proliferation, MTT; type: cell-based, human; settings: 3 days, serially diluted concentrations, MTT at 570 nm
Bcl-2 = Bcl-2 expression, Western immunoblotting; settings: 100 nM, 48 h
spinophilin = test: Spinophilin expression in hippocampal neurons; settings: 100 nM, 48 h
[3] = tested on: rat primary hippocampal neurons; test: Neuroprotective efficacy (NE) against glutamate-induced neurotoxicity over time; type: cell-based; settings: for Neuroprotective efficacy 2 hours after glutamate exposure / Neuroprotective efficacy 5 hours after glutamate exposure / Neuroprotective efficacy 7.5 hours after glutamate exposure / Neuroprotective efficacy 10 minutes after glutamate exposure: glutamate 200 μM; for time course of neuroprotection: early vs later time points after glutamate
Method: FIGS. 13A-E are graphs showing the neuroprotective efficacy of NS2 (FIG. 13A); NS1-1 (FIG. 13B); NS1-2 (FIG. 13C); NS1-3 (FIG. 13D); and NS1-4 (FIG. 13E) against glutamate-induced neurotoxicity in rat primary hippocampal neurons as a function of time and concentration (nM).
The assay for evaluating neuroprotective efficacy after glutamate exposure is discussed above. The following compounds were evaluated: NS2; NS1-1; NS1-2; NS1-3; and NS1-4. The results are shown in the Tables 4-8 and are presented graphically in FIGS. 13A-E.
Results are presented as neuroprotective efficacy (NE), which is defined as the percentage of neurotoxin-induced toxicity prevented by the test compounds (or combinations) and quantified by the equation:
NE=(Vtreatment−Vneurotoxin)/(Vcontrol−Vneurotoxin)*100%
where Vtreatment is the individual value from the test compounds (or combinations)-treated cultures, Vneurotoxin is a mean value from glutamate treated cultures, and Vcontrol is a mean value from vehicle-treated control cultures.

Chain of full-length human ERβ (Q92731 whole entry): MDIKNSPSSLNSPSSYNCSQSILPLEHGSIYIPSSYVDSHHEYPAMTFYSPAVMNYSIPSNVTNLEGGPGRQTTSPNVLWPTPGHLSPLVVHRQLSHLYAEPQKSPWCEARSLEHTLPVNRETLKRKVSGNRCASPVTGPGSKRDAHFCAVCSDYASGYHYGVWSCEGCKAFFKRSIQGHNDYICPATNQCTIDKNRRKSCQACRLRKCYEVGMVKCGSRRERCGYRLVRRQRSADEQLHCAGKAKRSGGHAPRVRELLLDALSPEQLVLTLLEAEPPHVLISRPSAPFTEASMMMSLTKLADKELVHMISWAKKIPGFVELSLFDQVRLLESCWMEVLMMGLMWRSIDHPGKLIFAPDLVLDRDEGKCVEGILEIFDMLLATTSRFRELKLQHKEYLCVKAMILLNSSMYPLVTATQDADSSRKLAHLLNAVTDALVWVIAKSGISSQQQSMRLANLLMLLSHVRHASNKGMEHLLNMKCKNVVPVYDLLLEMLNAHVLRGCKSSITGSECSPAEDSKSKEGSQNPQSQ

SMILES	Neuroprotective efficacy 2 hours after glutamate exposure ([3]; 1 nM)	Neuroprotective efficacy 2 hours after glutamate exposure ([3]; 10 nM)	Neuroprotective efficacy 2 hours after glutamate exposure ([3]; 100 nM)	Neuroprotective efficacy 2 hours after glutamate exposure ([3]; 1000 nM)	time course of neuroprotection [3]	Neuroprotective efficacy 7.5 hours after glutamate exposure ([3]; 1 nM)	Neuroprotective efficacy 7.5 hours after glutamate exposure ([3]; 10 nM)	Neuroprotective efficacy 7.5 hours after glutamate exposure ([3]; 100 nM)	Neuroprotective efficacy 7.5 hours after glutamate exposure ([3]; 1000 nM)	further results
C[C@]12CC[C@@H]3c4ccc(O)cc4CC[C@H]3[C@@H]1CC[C@@H]2O [17β-estradiol]										increase in ERK2 phosphorylation compared to vehicle (ERK2): 38.0±7.7%
CC(C)CCC[C@@H](C)CCC[C@@H](C)CCC[C@@H]1Cc2cc(O)ccc2C2CC[C@@]3(C)C(CC[C@@H]3O)C21 (stereo partly drawn) [NS1, 7α-[(4R,8R)-4,8,12-trimethyltridecyl]estra-1,3,5-trien-3,17β-diol]										pIC50 (full-length human ERα): 6.71; pIC50 (full-length human ERβ; competition with EL Red): 6.57; less potency than 17β-estradiol and ICI 182,780 in neuroprotection [1]: 10 fold; increase in neuronal membrane integrity compared with glutamate alone (LDH release) ([1]; 1 nM): 38.6±3.8%; increase in neuronal membrane integrity compared with glutamate alone (LDH release) ([1]; 10 nM): 44.1±3.8%; increase in neuronal membrane integrity compared with glutamate alone (LDH release) ([1]; 100 nM): 67.0±4.0%; increase in neuronal membrane integrity compared with glutamate alone (LDH release) ([1]; 1000 nM): 59.1±3.7%; increase in neuronal metabolic viability compared with glutamate alone (calcein AM) ([2]; 1 nM): 2.7±3.2%; increase in neuronal metabolic viability compared with glutamate alone (calcein AM) ([2]; 10 nM): 9.3±3.7%; increase in neuronal metabolic viability compared with glutamate alone (calcein AM) ([2]; 100 nM): 28.4±3.2%; increase in neuronal metabolic viability compared with glutamate alone (calcein AM) ([2]; 1000 nM): 25.6±4.4%; MCF-7 cell proliferation (MCF-7 cells): does not induce MCF-7 cell proliferation; increase in Bcl-2 expression compared to vehicle (Bcl-2): 23.4±6.8%; increase in spinophilin expression compared to vehicle (spinophilin): 61.7±8.2%
CCCCCCCCCCCCCCCC[C@@H]1Cc2cc(O)ccc2C2CC[C@@]3(C)C(CC[C@@H]3O)C21 (stereo partly drawn) [NS1-1]	12.7957%	41.8183%	77.2530%	70.8102%	neuroprotective at early time points with diminished protection at later time points					Neuroprotective efficacy 5 hours after glutamate exposure ([3]; 1 nM): 3.769%; Neuroprotective efficacy 5 hours after glutamate exposure ([3]; 10 nM): 20.8614%; Neuroprotective efficacy 5 hours after glutamate exposure ([3]; 100 nM): 23.8415%; Neuroprotective efficacy 5 hours after glutamate exposure ([3]; 1000 nM): 11.9900%
C[C@]12CCC3c4ccc(O)cc4C[C@@H](CCCCCCCCCCCCCCCCO)C3C1CC[C@@H]2O (stereo partly drawn) [NS1-2]	17.5192%	51.3940%	32.3028%	24.9982%	neuroprotective at early time points and increases in magnitude at later time points	26.5265%	76.6877%	93.0520%	47.1665%	
C[C@]12CCC3c4ccc(O)cc4C[C@@H](CCCCCCCCCCCCCCCCOCc4ccccc4)C3C1CC[C@@H]2O (stereo partly drawn) [NS1-3]	15.44%	55.77%	87.33%	78.43%	neuroprotective at early time points with diminished protection at later time points	8.102%	28.06%	51.87%	53.3893%	
CC(C)CCC[C@@H](C)CCC[C@@H](C)CCC[C@H](C)CC[C@@H]1Cc2cc(O)ccc2C2CC[C@@]3(C)C(CC[C@@H]3O)C21 (stereo partly drawn) [NS1-4]	51.86%	86.27%	110.3902%	94.3991%	neuroprotective at early time points with diminished protection at later time points	8.415%	28.8%	69.76%	38.0418%	
CC(C)=CCC/C(C)=C/CC/C(C)=C/CC1=C(c2ccc(O)cc2)C(=O)c2ccc(O)cc2C1=O [NS2]	3.937%	30.96%	68.16%	73.84%	neuroprotective at early time points and increases in magnitude at later time points					Neuroprotective efficacy 10 minutes after glutamate exposure ([3]; 1 nM): −10.3103%; Neuroprotective efficacy 5 hours after glutamate exposure ([3]; 1 nM): 24.94%; Neuroprotective efficacy 10 minutes after glutamate exposure ([3]; 10 nM): −3.6302%; Neuroprotective efficacy 5 hours after glutamate exposure ([3]; 10 nM): 44%; Neuroprotective efficacy 10 minutes after glutamate exposure ([3]; 100 nM): 33.68%; Neuroprotective efficacy 5 hours after glutamate exposure ([3]; 100 nM): 71.35%; Neuroprotective efficacy 10 minutes after glutamate exposure ([3]; 1000 nM): 40.51%; Neuroprotective efficacy 5 hours after glutamate exposure ([3]; 1000 nM): 76.45%
CC(=O)[C@H]1CC[C@H]2[C@@H]3CCC4=CC(=O)CC[C@]4(C)[C@H]3CC[C@]12C [progesterone, reference compound]										binding to ERα (full-length human ERα; negative control): does not bind; binding to ERβ (full-length human ERβ; negative control): does not bind
